Laboratory results taken from ChEMBL document CHEMBL4619814, “Identification and Development of 1,4-Diaryl-1,2,3-triazolo-Based Ureas as Novel FLT3 Inhibitors” (ACS Med Chem Lett, 2020).

Tests used:
in vitro = conditions: mouse, BaF3 cells
Description: Cytotoxicity against human BAF3 cells assessed as growth inhibition incubated for 72 hrs by CCK8 assay

[1] = system: Receptor-type tyrosine-protein kinase FLT3 (Homo sapiens), P36888 [UNDEFINED MUTATION]; conditions: MV4-11
Description: Inhibition of FLT3 ITD mutant expressed in human MV4-11 cells assessed as reduction in cell growth incubated for 72 hrs by CCK8 assay

[2] = system: Receptor-type tyrosine-protein kinase FLT3 (Homo sapiens), P36888 [UNDEFINED MUTATION]; conditions: BaF3
Description: Inhibition of FLT3 ITD mutant expressed in human BaF3 cells assessed as reduction in cell growth incubated for 72 hrs by CCK8 assay

Receptor-type tyrosine-protein kinase FLT3 (Homo sapiens), P36888 [UNDEFINED MUTATION], sequence (P36888 whole entry, looked up, change not shown): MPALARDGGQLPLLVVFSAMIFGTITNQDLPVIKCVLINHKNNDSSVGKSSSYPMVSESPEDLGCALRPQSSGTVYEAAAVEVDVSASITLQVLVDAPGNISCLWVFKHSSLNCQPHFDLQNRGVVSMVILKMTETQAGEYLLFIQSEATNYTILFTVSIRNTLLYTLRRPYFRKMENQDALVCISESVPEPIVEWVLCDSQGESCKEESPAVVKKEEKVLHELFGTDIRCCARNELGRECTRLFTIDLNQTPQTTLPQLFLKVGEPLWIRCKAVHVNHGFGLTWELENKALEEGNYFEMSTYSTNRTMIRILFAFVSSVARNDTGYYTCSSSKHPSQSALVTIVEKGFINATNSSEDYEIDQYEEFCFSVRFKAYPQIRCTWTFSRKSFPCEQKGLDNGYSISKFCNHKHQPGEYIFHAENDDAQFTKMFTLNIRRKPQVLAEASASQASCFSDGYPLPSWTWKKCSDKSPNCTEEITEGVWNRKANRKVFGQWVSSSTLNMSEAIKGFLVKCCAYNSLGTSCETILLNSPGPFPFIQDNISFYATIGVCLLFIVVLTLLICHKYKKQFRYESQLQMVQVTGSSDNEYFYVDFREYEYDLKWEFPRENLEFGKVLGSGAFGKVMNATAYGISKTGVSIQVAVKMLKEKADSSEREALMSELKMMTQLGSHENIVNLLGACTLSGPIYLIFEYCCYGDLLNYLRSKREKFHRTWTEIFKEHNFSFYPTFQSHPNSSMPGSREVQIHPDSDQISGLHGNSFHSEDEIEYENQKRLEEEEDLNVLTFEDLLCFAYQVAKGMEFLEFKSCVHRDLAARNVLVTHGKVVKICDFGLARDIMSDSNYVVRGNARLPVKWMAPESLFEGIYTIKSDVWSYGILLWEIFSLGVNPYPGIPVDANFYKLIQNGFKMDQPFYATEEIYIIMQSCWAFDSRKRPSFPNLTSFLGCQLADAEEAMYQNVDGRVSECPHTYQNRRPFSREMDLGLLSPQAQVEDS

Compound | GI50 at 72 h (in vitro) [nM] | GI50 [1] [nM] | GI50 [2] [nM]
CN(C)CCOc1ccc(-n2cc(-c3ccc(NC(=O)Nc4cc(C(C)(C)C)on4)cc3)nn2)c(Cl)c1 | > 3000 | 4 | –
Cc1cc(-c2cn(-c3ccc(OCCN4CCOCC4)cc3)nn2)ccc1NC(=O)Nc1cc(C(C)(C)C)on1 | 2160 | 344 | 61.5
CC(C)(C)c1cc(NC(=O)Nc2ccc(-c3cn(-c4ccc(OCCN5CCOCC5)cc4)nn3)cc2Cl)no1 | > 3000 | 498 | 165
CC(C)(C)c1cc(NC(=O)Nc2ccc(-c3cn(-c4ccc(OCCN5CCCC5)cc4Cl)nn3)cc2)no1 | 2040 | 5 | –
COc1cc(-n2cc(-c3ccc(NC(=O)Nc4cc(C(C)(C)C)on4)cc3)nn2)ccc1OCCN1CCOCC1 | > 3000 | 4.8 | –
CC(C)(C)c1cc(NC(=O)Nc2ccc(-c3cn(-c4ccc(OCCN5CCOCC5)cc4)nn3)c(Cl)c2)no1 | > 3000 | 12 | 3
CC(C)(C)c1cc(NC(=O)Nc2ccc(-c3cn(-c4ccc(OCCN5CCOCC5)cc4C(F)(F)F)nn3)cc2)no1 | > 3000 | 58.6 | 40.5
CC(C)(C)c1cc(NC(=O)Nc2ccc(-c3cn(-c4ccc(OCCN5CCOCC5)cc4)nn3)cc2)no1 | > 3000 | 4 | –
CC(C)(C)c1cc(NC(=O)Nc2ccc(-c3cn(-c4ccc(OCCN5CCOCC5)c(Cl)c4)nn3)cc2)no1 | 1380 | 21.5 | 2.8
CC(C)(C)c1cc(NC(=O)Nc2ccc(-c3cn(-c4ccc(OCCN5CCOCC5)cc4)nn3)cc2F)no1 | > 3000 | 19.6 | 4.2
CC(C)(C)c1cc(NC(=O)Nc2ccc(-c3cn(-c4ccc(OCCN5CCOCC5)cc4Br)nn3)cc2)no1 | 2020 | 5.7 | 2.3
CC(C)(C)c1cc(NC(=O)Nc2ccc(-c3cn(-c4ccc(OCCN5CCOCC5)c(C(F)(F)F)c4)nn3)cc2)no1 | 1520 | 106 | 48.5
COc1cc(-c2cn(-c3ccc(OCCN4CCOCC4)cc3)nn2)ccc1NC(=O)Nc1cc(C(C)(C)C)on1 | 1510 | 1220 | 851
CC(C)(C)c1cc(NC(=O)Nc2ccc(-c3cn(-c4ccc(OCCN5CCOCC5)cc4F)nn3)cc2)no1 | > 3000 | 5.1 | –
CC(C)(C)c1cc(NC(=O)Nc2ccc(-c3cn(-c4ccc(OCCN5CCOCC5)cc4)nn3)c(F)c2)no1 | > 3000 | 10.3 | 1.5
CC(C)(C)c1cc(NC(=O)Nc2ccc(-c3cn(-c4ccc(OCCCN5CCOCC5)cc4Cl)nn3)cc2)no1 | > 3000 | 6.2 | 1.5
CC(C)(C)c1cc(NC(=O)Nc2ccc(-c3cn(-c4ccc(OCCN5CCCCC5)cc4Cl)nn3)cc2)no1 | 1960 | 5.6 | –
Cc1cc(-n2cc(-c3ccc(NC(=O)Nc4cc(C(C)(C)C)on4)cc3)nn2)ccc1OCCN1CCOCC1 | 1970 | 7.1 | 1
CC(C)(C)c1cc(NC(=O)Nc2ccc(-c3cn(-c4ccc(OCCN5CCOCC5)c([N+](=O)[O-])c4)nn3)cc2)no1 | > 3000 | 39.2 | 55.4
